Experimental findings from BindingDB's records for doi:10.1016/j.bmcl.2010.08.118 (Roche Palo Alto, 2010) are described below.

Structures are written as SMILES. Where only a bound is given, the exact number is not on record here.

This test is described as follows: Inhibition of CCR5 by cell-cell fusion inhibition assay.
For orientation: IC50 means the point on the concentration scale where inhibition reaches its midpoint. Higher therefore signals a need for much substance. In turn, `Cc1ncnc(C)c1C(=O)N1C[C@H]2CN(CCC(c3ccccc3)C3CN(C(=O)CC(C)C)C3)C[C@H]2C1` (stereo partly drawn) [1-(3-(3-((3aR,6aS)-5-(4,6-dimethylpyrimidine-5-carbonyl)hexahydropyrrolo[3,4-c]pyrrol-2(1H)-yl)-1-phenylpropyl)azetidin-1-yl)-3-methylbutan-1-one] had an IC50 of more than 5000 nM. As for `Cc1ncnc(C)c1C(=O)N1C[C@H]2CN(CCC(c3ccccc3)C3CCN(C(=O)C(C)C)CC3)C[C@H]2C1` (stereo partly drawn) [1-(4-(3-((3aR,6aS)-5-(4,6-dimethylpyrimidine-5-carbonyl)hexahydropyrrolo[3,4-c]pyrrol-2(1H)-yl)-1-phenylpropyl)piperidin-1-yl)-2-methylpropan-1-one], the figure is more than 5000 nM. In the case of `Cc1ncnc(C)c1C(=O)N1C[C@H]2CN(CCC(c3ccccc3)C3CCN(C(=O)CC(C)C)CC3)C[C@H]2C1` (stereo partly drawn) [1-(4-(3-((3aR,6aS)-5-(4,6-dimethylpyrimidine-5-carbonyl)hexahydropyrrolo[3,4-c]pyrrol-2(1H)-yl)-1-phenylpropyl)piperidin-1-yl)-3-methylbutan-1-one], the IC50 came out at 2820 nM. In turn, `CCC(=O)N1CCC(C(CCN2C[C@@H]3CN(C(=O)c4c(C)ncnc4C)C[C@@H]3C2)c2ccccc2)CC1` (stereo partly drawn) [1-(4-(3-((3aR,6aS)-5-(4,6-dimethylpyrimidine-5-carbonyl)hexahydropyrrolo[3,4-c]pyrrol-2(1H)-yl)-1-phenylpropyl)piperidin-1-yl)propan-1-one] had an IC50 of more than 5000 nM. Under `Cc1cc(=O)oc(C)c1C(=O)N1C[C@H]2CN(CCC(c3ccccc3)C3CCN(S(C)(=O)=O)CC3)C[C@H]2C1` (stereo partly drawn) [4,6-dimethyl-5-((3aR,6aS)-5-(3-(1-(methylsulfonyl)piperidin-4-yl)-3-phenylpropyl)octahydropyrrolo[3,4-c]pyrrole-2-carbonyl)-2H-pyran-2-one] stands 8 nM; under `Cc1ncnc(C)c1C(=O)N1C[C@H]2CN(CCC(c3ccccc3)C3CCN(C(=O)NC(C)C)CC3)C[C@H]2C1` (stereo partly drawn) [4-(3-((3aR,6aS)-5-(4,6-dimethylpyrimidine-5-carbonyl)hexahydropyrrolo[3,4-c]pyrrol-2(1H)-yl)-1-phenylpropyl)-N-isopropylpiperidine-1-carboxamide], more than 5000 nM; under `Cc1ncnc(C)c1C(=O)N1C[C@H]2CN(CCC(c3ccccc3)C3CN(S(=O)(=O)C(C)C)C3)C[C@H]2C1` (stereo partly drawn) [(4,6-dimethylpyrimidin-5-yl)((3aR,6aS)-5-(3-(1-(isopropylsulfonyl)azetidin-3-yl)-3-phenylpropyl)hexahydropyrrolo[3,4-c]pyrrol-2(1H)-yl)methanone], 93 nM. Under `Cc1ncnc(C)c1C(=O)N1C[C@H]2CN(CCC(c3ccccc3)C3CCN(S(=O)(=O)C(C)C)CC3)C[C@H]2C1` (stereo partly drawn) [(4,6-dimethylpyrimidin-5-yl)((3aR,6aS)-5-(3-(1-(isopropylsulfonyl)piperidin-4-yl)-3-phenylpropyl)hexahydropyrrolo[3,4-c]pyrrol-2(1H)-yl)methanone] stands 99 nM; under `Cc1ncnc(C)c1C(=O)N1C[C@H]2CN(CCC(c3ccccc3)C3CN(CC(F)(F)F)C3)C[C@H]2C1` (stereo partly drawn) [(4,6-dimethylpyrimidin-5-yl)((3aR,6aS)-5-(3-phenyl-3-(1-(2,2,2-trifluoroethyl)azetidin-3-yl)propyl)hexahydropyrrolo[3,4-c]pyrrol-2(1H)-yl)methanone], more than 5000 nM. Under `Cc1ncnc(C)c1C(=O)N1C[C@H]2CN(CCC(c3ccccc3)C3CCN(CC(F)(F)F)CC3)C[C@H]2C1` (stereo partly drawn) [(4,6-dimethylpyrimidin-5-yl)((3aR,6aS)-5-(3-phenyl-3-(1-(2,2,2-trifluoroethyl)piperidin-4-yl)propyl)hexahydropyrrolo[3,4-c]pyrrol-2(1H)-yl)methanone] stands 34 nM; under `Cc1ncnc(C)c1C(=O)N1C[C@H]2CN(CCC(c3cccc(F)c3)C3CCN(CC(F)F)CC3)C[C@H]2C1` (stereo partly drawn) [((3aR,6aS)-5-(3-(1-(2,2-difluoroethyl)piperidin-4-yl)-3-(3-fluorophenyl)propyl)hexahydropyrrolo[3,4-c]pyrrol-2(1H)-yl)(4,6-dimethylpyrimidin-5-yl)methanone], 11 nM. Take `Cc1ncnc(C)c1C(=O)N1C[C@H]2CN(CCC(c3ccccc3)C3CCN(CC(F)F)CC3)C[C@H]2C1` (stereo partly drawn) [((3aR,6aS)-5-(3-(1-(2,2-difluoroethyl)piperidin-4-yl)-3-phenylpropyl)hexahydropyrrolo[3,4-c]pyrrol-2(1H)-yl)(4,6-dimethylpyrimidin-5-yl)methanone]: the IC50 came to 137 nM. Under `Cc1ncnc(C)c1C(=O)N1C[C@H]2CN(CCC(c3ccccc3)C3CN(C(=O)C4CCCC4)C3)C[C@H]2C1` (stereo partly drawn) [((3aR,6aS)-5-(3-(1-(cyclopentanecarbonyl)azetidin-3-yl)-3-phenylpropyl)hexahydropyrrolo[3,4-c]pyrrol-2(1H)-yl)(4,6-dimethylpyrimidin-5-yl)methanone] stands 2830 nM; under `Cc1ncnc(C)c1C(=O)N1C[C@H]2CN(CCC(c3cc(F)cc(F)c3)C3CN(S(=O)(=O)C4CC4)C3)C[C@H]2C1` (stereo partly drawn) [((3aR,6aS)-5-(3-(1-(cyclopropylsulfonyl)azetidin-3-yl)-3-(3,5-difluorophenyl)propyl)hexahydropyrrolo[3,4-c]pyrrol-2(1H)-yl)(4,6-dimethylpyrimidin-5-yl)methanone], 63 nM. As for `Cc1ncnc(C)c1C(=O)N1C[C@H]2CN(CCC(c3cccc(F)c3)C3CN(S(=O)(=O)C4CC4)C3)C[C@H]2C1` (stereo partly drawn) [((3aR,6aS)-5-(3-(1-(cyclopropylsulfonyl)azetidin-3-yl)-3-(3-fluorophenyl)propyl)hexahydropyrrolo[3,4-c]pyrrol-2(1H)-yl)(4,6-dimethylpyrimidin-5-yl)methanone], the figure is 30 nM; as for `Cc1ncnc(C)c1C(=O)N1C[C@H]2CN(CCC(c3ccccc3)C3CN(S(=O)(=O)C4CC4)C3)C[C@H]2C1` (stereo partly drawn) [((3aR,6aS)-5-(3-(1-(cyclopropylsulfonyl)azetidin-3-yl)-3-phenylpropyl)hexahydropyrrolo[3,4-c]pyrrol-2(1H)-yl)(4,6-dimethylpyrimidin-5-yl)methanone], 313 nM; as for `COC(=O)N1CCC(C(CCN2C[C@@H]3CN(C(=O)c4c(C)ncnc4C)C[C@@H]3C2)c2ccccc2)CC1` (stereo partly drawn) [methyl 4-(3-((3aR,6aS)-5-(4,6-dimethylpyrimidine-5-carbonyl)hexahydropyrrolo[3,4-c]pyrrol-2(1H)-yl)-1-phenylpropyl)piperidine-1-carboxylate], 744 nM.
